Measurements taken from PubChem BioAssay AID1745844 (Carcinogenic Potency Database (CPDB), 2022).
Active and inactive are the calls of the source. No rule for the calls is given here.

Tested on: rodent lifetime carcinogenesis bioassay, tumor incidence TD50
Test: carcinogenic potency in animals, long-term in vivo studies, CPDB compilation (AID 1745844)

## Cc1ccc(Cl)cc1N
mouse, strain B6C3F1, females, in feed, site: all sites + liver, lesion: hemangiosarcoma + hepatocellular adenoma + hepatocellular carcinoma, dosed 78 weeks, study length 91 weeks
  TD50: 143 mg/kg/day
mouse, strain B6C3F1, females, in feed, site: all sites, lesion: hemangiosarcoma, dosed 78 weeks, study length 91 weeks
  TD50: 373 mg/kg/day
mouse, strain B6C3F1, females, in feed, site: any site (literature study), lesion: several types, types named in the paper, dosed 78 weeks, study length 91 weeks
  TD50: 164 mg/kg/day
mouse, strain B6C3F1, females, in feed, site: liver, lesion: hepatocellular adenoma + hepatocellular carcinoma + neoplastic nodule, dosed 78 weeks, study length 91 weeks
  TD50: 180 mg/kg/day
mouse, strain B6C3F1, females, in feed, site: liver, lesion: hepatocellular adenoma + hepatocellular carcinoma, dosed 78 weeks, study length 91 weeks
  TD50: 180 mg/kg/day
mouse, strain B6C3F1, females, in feed, site: liver, lesion: hepatocellular carcinoma, dosed 78 weeks, study length 91 weeks
  TD50: 217 mg/kg/day
mouse, strain B6C3F1, females, in feed, site: lung, lesion: alveolar/bronchiolar adenoma + alveolar/bronchiolar carcinoma, dosed 78 weeks, study length 91 weeks
  TD50: 7480 mg/kg/day
mouse, strain B6C3F1, males, in feed, site: all sites + liver, lesion: hemangiosarcoma + hepatocellular adenoma + hepatocellular carcinoma, dosed 78 weeks, study length 91 weeks
  TD50: 134 mg/kg/day
mouse, strain B6C3F1, males, in feed, site: all sites, lesion: hemangiosarcoma, dosed 78 weeks, study length 91 weeks
  TD50: 213 mg/kg/day
mouse, strain B6C3F1, males, in feed, site: any site (literature study), lesion: several types, types named in the paper, dosed 78 weeks, study length 91 weeks
  TD50: 132 mg/kg/day
mouse, strain B6C3F1, males, in feed, site: liver, lesion: hepatocellular adenoma + hepatocellular carcinoma + neoplastic nodule, dosed 78 weeks, study length 91 weeks
  TD50: 249 mg/kg/day
mouse, strain B6C3F1, males, in feed, site: liver, lesion: hepatocellular adenoma + hepatocellular carcinoma, dosed 78 weeks, study length 91 weeks
  TD50: 249 mg/kg/day
mouse, strain B6C3F1, males, in feed, site: liver, lesion: hepatocellular carcinoma, dosed 78 weeks, study length 91 weeks
  TD50: 271 mg/kg/day
rat, strain Fischer 344, females, in feed, site: any site (literature study), lesion: several types, types named in the paper, dosed 78 weeks, study length 103 weeks
  carcinogen call: negative (inactive)
rat, strain Fischer 344, males, in feed, site: adrenal gland, lesion: pheochromocytoma, dosed 78 weeks, study length 103 weeks
  TD50: 714 mg/kg/day (inactive)
rat, strain Fischer 344, males, in feed, site: any site (literature study), lesion: several types, types named in the paper, dosed 78 weeks, study length 103 weeks
  TD50: 1020 mg/kg/day
rat, strain Fischer 344, males, in feed, site: liver, lesion: hepatocellular adenoma + hepatocellular carcinoma + neoplastic nodule, dosed 78 weeks, study length 103 weeks
  TD50: 3340 mg/kg/day

## CCOC(=O)N(C)N=O
hamster, strain Syrian Golden, both sexes, by gavage, site: esophagus, lesion: epidermoid carcinoma, dosed 27 weeks, study length 73 weeks
  TD50: 0.127 mg/kg/day
hamster, strain Syrian Golden, both sexes, by gavage, site: forestomach, lesion: epidermoid carcinoma, dosed 27 weeks, study length 73 weeks
  carcinogen call: positive

## CC(COc1ccccc1)N(CCCl)Cc1ccccc1 (centres undefined)
mouse, strain B6C3F1, females, i.p., site: abdominal cavity, lesion: sarcoma, NOS, dosed 52 weeks, study length 84 weeks
  TD50: 5.85 mg/kg/day
mouse, strain B6C3F1, females, i.p., site: any site (literature study), lesion: several types, types named in the paper, dosed 52 weeks, study length 84 weeks
  TD50: 3.08 mg/kg/day
mouse, strain B6C3F1, males, i.p., site: abdominal cavity, lesion: sarcoma, NOS, dosed 51 weeks, study length 83 weeks
  TD50: 4.95 mg/kg/day
mouse, strain B6C3F1, males, i.p., site: any site (literature study), lesion: several types, types named in the paper, dosed 51 weeks, study length 83 weeks
  TD50: 2.17 mg/kg/day
mouse, strain B6C3F1, males, i.p., site: liver, lesion: hepatocellular adenoma + hepatocellular carcinoma + neoplastic nodule, dosed 51 weeks, study length 83 weeks
  TD50: 5.84 mg/kg/day
mouse, strain B6C3F1, males, i.p., site: lung, lesion: alveolar/bronchiolar adenoma + alveolar/bronchiolar carcinoma, dosed 51 weeks, study length 83 weeks
  TD50: 63 mg/kg/day
rat, strain Sprague-Dawley, females, i.p., site: any site (literature study), lesion: several types, types named in the paper, dosed 52 weeks, study length 83 weeks
  TD50: 1.34 mg/kg/day
rat, strain Sprague-Dawley, females, i.p., site: peritoneum, lesion: sarcoma, NOS, dosed 52 weeks, study length 83 weeks
  TD50: 2.36 mg/kg/day
rat, strain Sprague-Dawley, males, i.p., site: any site (literature study), lesion: several types, types named in the paper, dosed 52 weeks, study length 83 weeks
  TD50: 0.555 mg/kg/day
rat, strain Sprague-Dawley, males, i.p., site: peritoneum, lesion: sarcoma, NOS, dosed 52 weeks, study length 83 weeks
  TD50: 0.71 mg/kg/day

## Nc1ccc(-c2ccc(N)c(O)c2)cc1O
mouse, strain ICR/Jcl, males, in feed, site: liver, lesion: hepatoma, dosed 65 weeks, study length 65 weeks
  TD50: 353 mg/kg/day

## Nc1nc(-c2ccc([N+](=O)[O-])cc2)cs1
mouse, strain Swiss, females, in feed, site: all sites, lesion: lymphocytic leukemia, dosed 46 weeks, study length 66 weeks
  TD50: 9.95 mg/kg/day
mouse, strain Swiss, females, in feed, site: any site (literature study), lesion: several types, types named in the paper, dosed 46 weeks, study length 66 weeks
  TD50: 9.95 mg/kg/day

## C[C@@H]1C[C@H](C)CN(S(=O)(=O)c2ccc(Cl)c(C(=O)O)c2)C1
rat, strain Fischer 344, males, in feed, site: liver, lesion: hepatocellular carcinoma, dosed 70 weeks, study length 71 weeks
  TD50: 4.85 mg/kg/day

## CCCCCCCN
rat, strain Wistar, males, in drinking water, site: any site (literature study), lesion: several types, types named in the paper, dosed 61 weeks, study length 61 weeks
  carcinogen call: negative (inactive)

## O=[N+]([O-])c1ccc(Nc2ccc(Nc3ccccc3)c(S(=O)(=O)O)c2)c([N+](=O)[O-])c1
mouse, strain B6C3F1, females, by gavage, site: liver, lesion: hepatocellular adenoma + hepatocellular carcinoma + neoplastic nodule, dosed 103 weeks, study length 104 weeks
  TD50: 7550 mg/kg/day
mouse, strain B6C3F1, females, by gavage, site: lung, lesion: alveolar/bronchiolar adenoma + alveolar/bronchiolar carcinoma, dosed 103 weeks, study length 104 weeks
  TD50: 11600 mg/kg/day
mouse, strain B6C3F1, females, by gavage, site: lung, lesion: alveolar/bronchiolar adenoma, dosed 103 weeks, study length 104 weeks
  TD50: 2590 mg/kg/day (inactive)
mouse, strain B6C3F1, males, by gavage, site: any site (literature study), lesion: several types, types named in the paper, dosed 103 weeks, study length 104 weeks
  TD50: 372 mg/kg/day
mouse, strain B6C3F1, males, by gavage, site: liver, lesion: hepatocellular carcinoma, dosed 103 weeks, study length 104 weeks
  TD50: 184 mg/kg/day (inactive)
mouse, strain B6C3F1, males, by gavage, site: lung, lesion: alveolar/bronchiolar adenoma + alveolar/bronchiolar carcinoma, dosed 103 weeks, study length 104 weeks
  TD50: 5860 mg/kg/day
rat, strain Fischer 344, females, by gavage, site: any site (literature study), lesion: several types, types named in the paper, dosed 103 weeks, study length 104 weeks
  TD50: 361 mg/kg/day
rat, strain Fischer 344, females, by gavage, site: kidney, lesion: transitional-cell carcinoma, dosed 103 weeks, study length 104 weeks
  TD50: 1710 mg/kg/day
rat, strain Fischer 344, females, by gavage, site: liver, lesion: hepatocellular adenoma + hepatocellular carcinoma + neoplastic nodule, dosed 103 weeks, study length 104 weeks
  TD50: 5090 mg/kg/day
rat, strain Fischer 344, males, by gavage, site: any site (literature study), lesion: several types, types named in the paper, dosed 100 weeks, study length 104 weeks
  TD50: 270 mg/kg/day (inactive)
